Values quoted from earlier work in PubChem BioAssay AID1259409 (Chemical Carcinogenesis Research Information System (CCRIS), 2018).

Test system: rodent chemically induced tumor inhibition, incidence and multiplicity
Assay: CCRIS tumor inhibitor studies
Settings: Route [Inhibitor]: ORAL

## S=C=NCCc1ccccc1
Carcinogen: N-NITROSOBIS(2-OXOPROPYL)AMINE [60599-38-4], Dose [Inhibitor]: 3 UMOL IN DIET FOR 49 WK BEGINNING 2 WK POST LAST CARCINOGEN DOSE (STUDY DURATION: 52 WK), Species: HAMSTER, Strain/Sex: SYRIAN/FEMALE, Target Tissue: Type of Lesion: LUNG: ADENOCARCINOMA, Dose [Carcinogen]: 20 MG/KG BW 1X/WK FOR 2 WK (STUDY DURATION: 52 WK), Promoter: NONE
  tumour outcome (control, treated, inhibition, significance): 14/25 (56.0%), 12/28 (42.9%), 23%, not significant
Carcinogen: N-NITROSOBIS(2-OXOPROPYL)AMINE [60599-38-4], Dose [Inhibitor]: 3 UMOL IN DIET FOR 49 WK BEGINNING 2 WK POST LAST CARCINOGEN DOSE (STUDY DURATION: 52 WK), Species: HAMSTER, Strain/Sex: SYRIAN/FEMALE, Target Tissue: Type of Lesion: LUNG: ADENOMA, Dose [Carcinogen]: 20 MG/KG BW 1X/WK FOR 2 WK (STUDY DURATION: 52 WK), Promoter: NONE
  tumour outcome (control, treated, inhibition, significance): 20/25 (88.0%), 26/28 (92.9%), -6%, not significant
Carcinogen: N-NITROSOBIS(2-OXOPROPYL)AMINE [60599-38-4], Dose [Inhibitor]: 3 UMOL IN DIET FOR 49 WK BEGINNING 2 WK POST LAST CARCINOGEN DOSE (STUDY DURATION: 52 WK), Species: HAMSTER, Strain/Sex: SYRIAN/FEMALE, Target Tissue: Type of Lesion: PANCREAS: ADENOCARCINOMA, Dose [Carcinogen]: 20 MG/KG BW 1X/WK FOR 2 WK (STUDY DURATION: 52 WK), Promoter: NONE
  tumour outcome (control, treated, inhibition, significance): 20/25 (80.0%), 22/28 (78.6%), 2%, not significant
Carcinogen: N-NITROSOBIS(2-OXOPROPYL)AMINE [60599-38-4], Dose [Inhibitor]: 6 UMOL IN DIET FOR 49 WK BEGINNING 2 WK POST LAST CARCINOGEN DOSE (STUDY DURATION: 52 WK), Species: HAMSTER, Strain/Sex: SYRIAN/FEMALE, Target Tissue: Type of Lesion: LIVER: HEPATOCELLULAR ADENOMA, Dose [Carcinogen]: 20 MG/KG BW 1X/WK FOR 2 WK (STUDY DURATION: 52 WK), Promoter: NONE
  tumour outcome (control, treated, inhibition, significance): 18/25 (72.0%), 16/28 (57.1%), 21%, not significant
Carcinogen: N-NITROSOBIS(2-OXOPROPYL)AMINE [60599-38-4], Dose [Inhibitor]: 6 UMOL IN DIET FOR 49 WK BEGINNING 2 WK POST LAST CARCINOGEN DOSE (STUDY DURATION: 52 WK), Species: HAMSTER, Strain/Sex: SYRIAN/FEMALE, Target Tissue: Type of Lesion: LUNG: ADENOCARCINOMA, Dose [Carcinogen]: 20 MG/KG BW 1X/WK FOR 2 WK (STUDY DURATION: 52 WK), Promoter: NONE
  tumour outcome (control, treated, inhibition, significance): 14/25 (56.0%), 11/28 (39.3%), 30%, not significant
Carcinogen: N-NITROSOBIS(2-OXOPROPYL)AMINE [60599-38-4], Dose [Inhibitor]: 6 UMOL IN DIET FOR 49 WK BEGINNING 2 WK POST LAST CARCINOGEN DOSE (STUDY DURATION: 52 WK), Species: HAMSTER, Strain/Sex: SYRIAN/FEMALE, Target Tissue: Type of Lesion: LUNG: ADENOMA, Dose [Carcinogen]: 20 MG/KG BW 1X/WK FOR 2 WK (STUDY DURATION: 52 WK), Promoter: NONE
  tumour outcome (control, treated, inhibition, significance): 20/25 (88.0%), 24/28 (85.7%), 3%, not significant
Carcinogen: N-NITROSOBIS(2-OXOPROPYL)AMINE [60599-38-4], Dose [Inhibitor]: 6 UMOL IN DIET FOR 49 WK BEGINNING 2 WK POST LAST CARCINOGEN DOSE (STUDY DURATION: 52 WK), Species: HAMSTER, Strain/Sex: SYRIAN/FEMALE, Target Tissue: Type of Lesion: PANCREAS: ADENOCARCINOMA, Dose [Carcinogen]: 20 MG/KG BW 1X/WK FOR 2 WK (STUDY DURATION: 52 WK), Promoter: NONE
  tumour outcome (control, treated, inhibition, significance): 20/25 (80.0%), 25/28 (89.3%), -12%, not significant
Carcinogen: N-NITROSOMETHYLBENZYLAMINE, 937-40-6, Dose [Inhibitor]: 0, 0.325 UMOL/G OF DIET FOR 25 WK BEGINNING 2 WK PRIOR TO CARCINOGEN TREATMENT (STUDY DURATION: 25 WK), Species: RAT, Strain/Sex: F344/MALE, Target Tissue: Type of Lesion: ESOPHAGUS: TUMORS, Dose [Carcinogen]: 0.5 MG/KG 1/WK FOR 15 WK, Promoter: NONE USED
  tumour outcome (control, treated, inhibition, significance): 100%, 100%, 0%, not significant
Carcinogen: N-NITROSOMETHYLBENZYLAMINE, 937-40-6, Dose [Inhibitor]: 0, 0.4 UMOL/G IN DIET FOR 25 WK BEGINNING 2 WK PRIOR TO CARCINOGEN TREATMENT (STUDY DURATION: 25 WK), Species: RAT, Strain/Sex: F344/MALE, Target Tissue: Type of Lesion: ESOPHAGUS: TUMOR, Dose [Carcinogen]: 0.5 MG/KG BW IN 20% DMSO 1/WK FOR 15 WK, Promoter: NONE USED
  tumour outcome (control, treated, inhibition, significance): 100%, 57%, 43%, not significant
Carcinogen: N-NITROSOMETHYLBENZYLAMINE, 937-40-6, Dose [Inhibitor]: 0, 0.75 UMOL/G OF DIET FOR 25 WK BEGINNING 2 WK PRIOR TO CARCINOGEN TREATMENT (STUDY DURATION: 25 WK), Species: RAT, Strain/Sex: F344/MALE, Target Tissue: Type of Lesion: ESOPHAGUS: TUMORS, Dose [Carcinogen]: 0.5 MG/KG 1/WK FOR 15 WK, Promoter: NONE USED
  tumour outcome (control, treated, inhibition, significance): 100%, 100%, 0%, not significant
Carcinogen: N-NITROSOMETHYLBENZYLAMINE, 937-40-6, Dose [Inhibitor]: 0, 1 UMOL/G IN DIET FOR 25 WK BEGINNING 2 WK PRIOR TO CARCINOGEN TREATMENT (STUDY DURATION: 25 WK), Species: RAT, Strain/Sex: F344/MALE, Target Tissue: Type of Lesion: ESOPHAGUS: TUMOR, Dose [Carcinogen]: 0.5 MG/KG BW IN 20% DMSO 1/WK FOR 15 WK, Promoter: NONE USED
  tumour outcome (control, treated, inhibition, significance): 100%, 40%, 60%, p<0.05
Carcinogen: N-NITROSOMETHYLBENZYLAMINE, 937-40-6, Dose [Inhibitor]: 0, 1.5 UMOL/G OF DIET FOR 25 WK BEGINNING 2 WK PRIOR TO CARCINOGEN TREATMENT (STUDY DURATION: 25 WK), Species: RAT, Strain/Sex: F344/MALE, Target Tissue: Type of Lesion: ESOPHAGUS: TUMORS, Dose [Carcinogen]: 0.5 MG/KG 1/WK FOR 15 WK, Promoter: NONE USED
  tumour outcome (control, treated, inhibition, significance): 100%, 60%, 40%, p<0.01
Carcinogen: N-NITROSOMETHYLBENZYLAMINE, 937-40-6, Dose [Inhibitor]: 0, 2.5 UMOL/G IN DIET FOR 25 WK BEGINNING 2 WK PRIOR TO CARCINOGEN TREATMENT (STUDY DURATION: 25 WK), Species: RAT, Strain/Sex: F344/MALE, Target Tissue: Type of Lesion: ESOPHAGUS: TUMOR, Dose [Carcinogen]: 0.5 MG/KG BW IN 20% DMSO 1/WK FOR 15 WK, Promoter: NONE USED
  tumour outcome (control, treated, inhibition, significance): 100%, 7%, 93%, p<0.05
Carcinogen: N-NITROSOMETHYLBENZYLAMINE, 937-40-6, Dose [Inhibitor]: 0, 3 UMOL/G OF DIET FOR 25 WK BEGINNING 2 WK PRIOR TO CARCINOGEN TREATMENT (STUDY DURATION: 25 WK), Species: RAT, Strain/Sex: F344/MALE, Target Tissue: Type of Lesion: ESOPHAGUS: TUMORS, Dose [Carcinogen]: 0.5 MG/KG 1/WK FOR 15 WK, Promoter: NONE USED
  tumour outcome (control, treated, inhibition, significance): 100%, 0%, 100%, p<0.01
Carcinogen: N-NITROSOMETHYLBENZYLAMINE, 937-40-6, Dose [Inhibitor]: 0, 500 PPM IN DIET FOR DURATION OF STUDY BEGINNING 1 WK POST CARCINOGEN TREATMENT (STUDY DURATION: 25 WK), Species: RAT, Strain/Sex: F344/MALE, Target Tissue: Type of Lesion: ESOPHAGUS: TUMOR, Dose [Carcinogen]: 1 MG/KG 3/WK FOR 5 WK, Promoter: NONE USED
  tumour outcome (control, treated, inhibition, significance): 15/15 (100%), 14/15 (93%), 7%, not significant
Carcinogen: N-NITROSOMETHYLBENZYLAMINE, 937-40-6, Dose [Inhibitor]: 0, 500 PPM IN DIET FOR DURATION OF STUDY BEGINNING 2 WK PRIOR TO CARCINOGEN TREATMENT (STUDY DURATION: 25 WK), Species: RAT, Strain/Sex: F344/MALE, Target Tissue: Type of Lesion: ESOPHAGUS: TUMOR, Dose [Carcinogen]: 1 MG/KG 3/WK FOR 5 WK, Promoter: NONE USED
  tumour outcome (control, treated, inhibition, significance): 15/15 (100%), 7/15 (47%), 53%, p<0.01
